Patent publication US20240091200A1 (Lilac Therapeutics, Inc., priority 2019, published 2024)
Where “and” joins values, the source holds several entries; their conditions need not be identical. Equal values may be shown once.

Biological target: Glycolate oxidase (GO) (Homo sapiens (Human), UniProt Q9UJM8)
Assay: GO biochemical assay (Amplex Red, 384-well)
Conditions: not given
Method: Amplex® Red Hydrogen Peroxide/Peroxidase Assay Kit (Catalog no. A22188) was purchased from Thermo Fisher (Waltham, MA).
The reaction was mixed and incubated at room temperature for 20 min followed by reading the plates by EnVision plate reader (Perkin Elmer, San Jose, CA) with excitation at 570 nm and emission 585 nm. […] The % inhibition as calculated as 100%×(Well-Negative)/(Positive-Negative)

Sequence of Glycolate oxidase (GO) (Q9UJM8 whole entry): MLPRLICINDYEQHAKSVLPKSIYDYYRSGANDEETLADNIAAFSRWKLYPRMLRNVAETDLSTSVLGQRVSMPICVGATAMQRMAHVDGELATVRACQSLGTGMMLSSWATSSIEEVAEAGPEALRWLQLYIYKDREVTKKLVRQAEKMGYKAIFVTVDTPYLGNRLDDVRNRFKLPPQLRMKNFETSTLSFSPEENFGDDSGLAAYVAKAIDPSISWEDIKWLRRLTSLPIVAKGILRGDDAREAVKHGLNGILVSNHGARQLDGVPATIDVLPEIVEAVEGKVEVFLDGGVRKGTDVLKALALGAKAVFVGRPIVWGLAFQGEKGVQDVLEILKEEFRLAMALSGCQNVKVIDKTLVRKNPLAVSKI

Compound	IC50 [nM]
COc1cc2ccc(-c3nn[nH]c3C(=O)O)cc2cn1 [Example 40, 4-(3-methoxyisoquinolin-7-yl)-1H-1,2,3-triazole-5-carboxylic acid]	1000
O=C(O)c1[nH]nnc1-c1ccc(-c2cccc(S(=O)(=O)N3CCOCC3)c2)cc1 [Example 75]	18.6
O=C(O)c1[nH]nnc1-c1ccc(-c2ccc(N3CCOCC3)cc2)cc1 [Example 84]	1000
Cc1ccc(-c2ccc(-c3nn[nH]c3C(=O)O)cc2)cc1 [Example 53]	377
Cc1cc(-c2ccc(-c3nn[nH]c3C(=O)O)cc2)ccc1Cl [Example 91]	64.5
O=C(O)c1[nH]nnc1-c1ccc(-c2ccc(S(=O)(=O)N3CCCCC3)cc2)cc1 [Example 79]	244
NS(=O)(=O)c1ccc(-c2ccc(-c3nn[nH]c3C(=O)O)cc2)cc1 [Example 77]	94.6
O=C(O)c1[nH]nnc1-c1ccc2c(c1)OC(F)(F)O2 [Example 29, 4-(2,2-difluorobenzo[d][1,3]dioxol-5-yl)-1H-1,2,3-triazole-5-carboxylic acid]	330
N#Cc1cccc(-c2nn[nH]c2C(=O)O)c1 [Example 12]	130
Cc1ccccc1-c1nn[nH]c1C(=O)O [Example 3, 4-(o-tolyl)-1H-1,2,3-triazole-5-carboxylic acid]	≥ 10000
O=C(O)c1[nH]nnc1-c1ccc2c(c1)[nH]c1ccccc12 [Example 88, 4-(9H-carbazol-2-yl)-1H-1,2,3-triazole-5-carboxylic acid]	77.6
O=C(O)c1[nH]nnc1-c1ccc(-c2ccc(N3CCCC3=O)cc2)cc1 [Example 83]	136
CCOC(=O)c1[nH]nnc1-c1ccc(-c2ccc(C(N)=O)cc2)cc1 [Example 2, ethyl 4-(4carbamoyl-[1,1biphenyl]-4-yl)-1H-1,2,3-triazole-5-carboxylate]	1000
O=C(O)c1[nH]nnc1-c1ccc(-c2ccc(OC(F)(F)F)cc2)cc1 [Example 55]	563
O=C(O)c1[nH]nnc1-c1cccc(Cl)c1F [Example 22, 4-(3-chloro-2-fluorophenyl)-1H-1,2,3-triazole-5-carboxylic acid]	159
O=C(O)c1[nH]nnc1-c1cccc(F)c1 [Example 8, 4-(3-fluorophenyl)-1H-1,2,3-triazole-5-carboxylic acid]	1310
O=C(O)c1n[nH]cc1-c1cccnc1 [Example 35, 4-(pyridin-3-yl)-1H-pyrazole-3-carboxylic acid]	≥ 10000
CCOC(=O)c1[nH]nnc1-c1ccc(-c2ccc(Cl)cc2)cc1 [Example 1]	1000
Cc1ccc(-c2nn[nH]c2C(=O)O)cc1 [Example 5, 4-(p-tolyl)-1H-1,2,3-triazole-5-carboxylic acid]	≥ 10000
O=C(O)c1[nH]nnc1-c1ccc(Cl)c(Cl)c1 [Example 19, 4-(3,4-dichlorophenyl)-1H-1,2,3-triazole-5-carboxylic acid]	196
O=C(O)c1[nH]nnc1-c1ccc2c(c1)oc1ccccc12 [Example 87, 4-(dibenzo[b,d]furan-3-yl)-1H-1,2,3-triazole-5-carboxylic acid]	23.8
Cn1nnc(C(=O)O)c1-c1ccc(F)c(Cl)c1 [Example 17, 5-(3-chloro-4-fluorophenyl)-1-methyl-1H-1,2,3-triazole-4-carboxylic acid]	≥ 10000
CC(C)(C)c1ccc(-c2ccc(-c3nn[nH]c3C(=O)O)cc2)cc1 [Example 54]	4300

Second part, the compound after the results:

IC50 [nM]	Compound
≥ 10000	O=C(O)c1[nH]nnc1-c1cscn1 [Example 141, 4-(thiazol-4-yl)-1H-1,2,3-triazole-5-carboxylic acid]
226	O=C(O)c1[nH]nnc1C#Cc1ccc(Cl)cc1 [Example 160, 4-((4-chlorophenyl)ethynyl)-1H-1,2,3-triazole-5-carboxylic acid]
> 10000	O=C(O)c1[nH]cnc1-c1cc(Cl)cc(Cl)c1 [Example 185, 4-(3,5-dichlorophenyl)-1H-imidazole-5-carboxylic acid]
1000	CN(C)C(=O)c1cccc(-c2ccc(-c3nn[nH]c3C(=O)O)cc2)c1 [Example 143]
19.7	Cc1cc(-c2ccc(-c3ccc(-c4nn[nH]c4C(=O)O)cc3)cc2)nn1C [Example 117]
≥ 10000	Cn1nnc(-c2ccc(F)c(Cl)c2)c1C(=O)O [Example 150, 4-(3-chloro-4-fluorophenyl)-1-methyl-11H-1,2,3-triazole-5-carboxylic acid]
> 10000	O=C(O)c1c[nH]nc1-c1cc(Cl)cc(Cl)c1 [Example 183, 3-(3,5-dichlorophenyl)-1H-pyrazole-4-carboxylic acid]
22.7	Cc1cnc(-c2ccc(-c3ccc(-c4nn[nH]c4C(=O)O)cc3)cc2)s1 [Example 109]
16.1	O=C(O)c1[nH]nnc1-c1ccc(-c2ccc(-c3cn[nH]c3)cc2)cc1 [Example 124]
> 10000	O=C(O)c1[nH]cnc1-c1ccc(F)c(Cl)c1 [Example 184, 4-(3-chloro-4-fluorophenyl)-1H-imidazole-5-carboxylic acid]
408	O=C(O)c1[nH]nnc1-c1ccc(-c2cccc(-c3ccccc3)c2)cc1 [Example 99, 4-([1,131terphenyl]-4-yl)-1H-1,2,3-triazole-5-carboxylic acid]
1000	CC(=O)N1CCC(c2ccc(-c3nn[nH]c3C(=O)O)cc2)CC1 [Example 163, 4-(4-(1-acetylpiperidin-4-yl)phenyl)-1H-1,2,3-triazole-5-carboxylic acid]
10.7	O=C(O)c1[nH]nnc1-c1ccc(-c2ccc(-c3nc4ccccc4s3)cc2)cc1 [Example 122]
≥ 10000	O=C(O)c1[nH]nnc1-c1ccccn1 [Example 139, 4-(pyridin-2-yl)-1H-1,2,3-triazole-5-carboxylic acid]
16.5	O=C(O)c1[nH]ncc1-c1ccc2c(c1)C(F)(F)c1cc(-c3c[nH]nn3)ccc1-2 [Example 170, 4-(9,9-difluoro-7-(1H-1,2,3-triazol-4-yl)-9H-fluoren-2-yl)-1H-pyrazole-5-carboxylic acid]
4.14	O=C(O)c1[nH]nnc1-c1ccc(-c2ccc(-c3cnn[nH]3)cc2)cc1 [Example 127]
4.67	Cc1[nH]nnc1-c1ccc(-c2ccc(-c3nn[nH]c3C(=O)O)cc2)cc1 [Example 131]
33.6	O=C(O)c1[nH]nnc1-c1ccc(-c2ccc(Cl)c(S(=O)(=O)N3CCOCC3)c2)cc1 [Example 146]
> 10000	O=C(O)c1c[nH]nc1-c1ccc(F)c(Cl)c1 [Example 182, 3-(3-chloro-4-fluorophenyl)-1H-pyrazole-4-carboxylic acid]
≥ 10000	O=C(O)c1[nH]ncc1-c1ccccn1 [Example 140, 4-(pyridin-2-yl)-1H-pyrazole-5-carboxylic acid]
119	CC1(C)c2cc(-c3ccc(-c4nn[nH]c4C(=O)O)cc3)ccc2C(=O)N1CC(F)(F)F [Example 153, 4-(4-(3,3-dimethyl-1-oxo-2-(2,2,2-trifluoroethyl)isoindolin-5-yl)phenyl)-1H-1,2,3-triazole-5-carboxylic acid]
37.5	O=C(O)c1[nH]nnc1-c1ccc(-c2ccc(-c3ncco3)cc2)cc1 [Example 112]
24	O=C(O)c1[nH]nnc1-c1ccc(-c2ccc(-c3c[nH]cn3)cc2)cc1 [Example 129]
88.2	CC(=O)N1CC=C(c2ccc(-c3nn[nH]c3C(=O)O)cc2)CC1 [Example 162, 4-(4-(1-acetyl-1,2,3,6-tetrahydropyridin-4-yl)phenyl)-1H-1,2,3-triazole-5-carboxylic acid]
93.2	O=C(O)c1[nH]nnc1-c1ccc(-c2ccc(-c3ccncc3)cc2)cc1 [Example 103]

Test system: not listed separately
Assay: Plasma pharmacokinetics after an oral dose of Example 2 in SD rats
Format: in vivo, Sprague Dawley rats
Conditions: Example 2 in plasma, PO Example 2 5 mg/kg, individual rats
Method: An oral dose of Example 2 was formulated in a sterile solution of 50% water, 37.5% PEG 300, and 12.5% DMSO at 1.0 mg/mL. The dosing group consisted of three fasted male Sprague Dawley rats. At dosing, the animals weighed between 0.26 and 0.27 kg. For the oral dosing group, the formulated dose was administered via oral gavage at 5.0 mL/kg for a dose of 5.0 mg/kg. Non-compartmental pharmacokinetic analysis was performed on the plasma concentration-time data.

AUC0-24 h	AUCinf	Cmax	Tmax [min]	Compound
1.55 µM·h and 1.85 µM·h	1.57 µM·h and 1.9 µM·h	2530 nM and 2110 nM	30	CCOC(=O)c1[nH]nnc1-c1ccc(-c2ccc(C(N)=O)cc2)cc1 [Example 2, ethyl 4-(4carbamoyl-[1,1biphenyl]-4-yl)-1H-1,2,3-triazole-5-carboxylate]

Same assay, conditions: Example 2 in plasma, PO Example 2 5 mg/kg, mean n=3

AUCinf [µM·h]	Compound
1.6	CCOC(=O)c1[nH]nnc1-c1ccc(-c2ccc(C(N)=O)cc2)cc1 [Example 2, ethyl 4-(4carbamoyl-[1,1biphenyl]-4-yl)-1H-1,2,3-triazole-5-carboxylate]

Same assay, conditions: male, Sprague Dawley, rat, plasma, po, 5 mg/kg, Example 2 in plasma, PO Example 2 5 mg/kg, individual rats

AUC(0-inf) [µM·h]	Cmax [nM]	Compound
1.34	2540	CCOC(=O)c1[nH]nnc1-c1ccc(-c2ccc(C(N)=O)cc2)cc1 [Example 2, ethyl 4-(4carbamoyl-[1,1biphenyl]-4-yl)-1H-1,2,3-triazole-5-carboxylate]

Same assay, conditions: male, Sprague Dawley, rat, plasma, po, 5 mg/kg, Example 2 in plasma, PO Example 2 5 mg/kg, individual rats, read-out: AUC0-24 h

AUC(0-t) [µM·h]	Compound
1.27	CCOC(=O)c1[nH]nnc1-c1ccc(-c2ccc(C(N)=O)cc2)cc1 [Example 2, ethyl 4-(4carbamoyl-[1,1biphenyl]-4-yl)-1H-1,2,3-triazole-5-carboxylate]

Same assay, conditions: male, Sprague Dawley, rat, plasma, po, 5 mg/kg, Example 2 in plasma, PO Example 2 5 mg/kg, individual rats, read-out: Tmax

Tmax [min]	Compound
15	CCOC(=O)c1[nH]nnc1-c1ccc(-c2ccc(C(N)=O)cc2)cc1 [Example 2, ethyl 4-(4carbamoyl-[1,1biphenyl]-4-yl)-1H-1,2,3-triazole-5-carboxylate]

Same assay, conditions: male, Sprague Dawley, rat, plasma, po, 5 mg/kg, Example 2 in plasma, PO Example 2 5 mg/kg, mean n=3

AUC(0-inf) [µM·h]	Cmax [nM]	Compound
1.6 ± 0.28	2390 ± 246	CCOC(=O)c1[nH]nnc1-c1ccc(-c2ccc(C(N)=O)cc2)cc1 [Example 2, ethyl 4-(4carbamoyl-[1,1biphenyl]-4-yl)-1H-1,2,3-triazole-5-carboxylate]

Same assay, conditions: male, Sprague Dawley, rat, plasma, po, 5 mg/kg, Example 2 in plasma, PO Example 2 5 mg/kg, mean n=3, read-out: AUC0-24 h

AUC(0-t) [µM·h]	Compound
1.56	CCOC(=O)c1[nH]nnc1-c1ccc(-c2ccc(C(N)=O)cc2)cc1 [Example 2, ethyl 4-(4carbamoyl-[1,1biphenyl]-4-yl)-1H-1,2,3-triazole-5-carboxylate]

Same assay, conditions: male, Sprague Dawley, rat, plasma, po, 5 mg/kg, Example 2 in plasma, PO Example 2 5 mg/kg, mean n=3, read-out: Tmax

Tmax [min]	Compound
19.8	CCOC(=O)c1[nH]nnc1-c1ccc(-c2ccc(C(N)=O)cc2)cc1 [Example 2, ethyl 4-(4carbamoyl-[1,1biphenyl]-4-yl)-1H-1,2,3-triazole-5-carboxylate]
